Data from PubChem BioAssay AID330 (DTP/NCI, 2004).
Values joined by “and” are separate entries in the source; they are usually repeats but may differ in a detail not shown here. Equal values may be shown once. Inconclusive results and toxic doses are left out.

Test system: P388 leukemia ip, CD2F1 mice, survival T/C
Experiment: NCI In Vivo Anticancer Drug Screen. Data for tumor model P388 Leukemia (intraperitoneal) in CD2F1 (CDF1) mice
Conditions: endpoint: median survival time, higher = longer survival
Summary of the method: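 Mice carrying the transplanted tumor received test compound or vehicle. Survival was recorded in each group, and the value is the treated-group measurement divided by that of the vehicle-treated control group.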

[1] = dose: 60.0 mg/kg/injection, schedule: Q01DX005 (ip), vehicle: saline with Tween-80
[2] = dose: 120.0 mg/kg/injection, schedule: Q01DX005 (ip), vehicle: saline with Tween-80
[3] = dose: 240.0 mg/kg/injection, schedule: Q01DX005 (ip), vehicle: saline with Tween-80
[4] = dose: 100.0 mg/kg/injection, schedule: Q01DX005 (ip), vehicle: saline with Tween-80
[5] = dose: 200.0 mg/kg/injection, schedule: Q01DX005 (ip), vehicle: saline with Tween-80
[6] = dose: 50.0 mg/kg/injection, schedule: Q01DX009 (ip), vehicle: saline with Tween-80
[7] = dose: 100.0 mg/kg/injection, schedule: Q01DX009 (ip), vehicle: saline with Tween-80
[8] = dose: 60.0 mg/kg/injection, schedule: Q01DX005 (ip), vehicle: saline
[9] = dose: 120.0 mg/kg/injection, schedule: Q01DX005 (ip), vehicle: saline
[10] = dose: 240.0 mg/kg/injection, schedule: Q01DX005 (ip), vehicle: saline
[11] = dose: 25.0 mg/kg/injection, schedule: Q01DX005 (ip), vehicle: saline

With OCC1CC12c1ccccc1-c1ccccc12 (stereo unspecified) the T/C [1] was 98 % of control, the T/C [2] was 96 % of control and the T/C [3] was 101 % of control.
With O=C(Oc1c(Cc2ccccc2)c(=O)[nH]c2ccccc12)c1ccccc1 the T/C (dose: 60.0 mg/kg/injection, schedule: Q01DX005 (ip), vehicle: Klucel (hydroxypropylcellulose) (HPC)) was 90 % of control and the T/C (dose: 120.0 mg/kg/injection, schedule: Q01DX005 (ip), vehicle: Klucel (hydroxypropylcellulose) (HPC)) was 89 % of control.
For CCOC(=O)Nc1cc2c(c(N)n1)N=C(c1ccc(Cl)c(Cl)c1)CN2, the T/C (dose: 5.0 mg/kg/injection, schedule: Q01DX005 (ip), vehicle: saline with Tween-80) was 121 % of control and the T/C (dose: 10.0 mg/kg/injection, schedule: Q01DX005 (ip), vehicle: saline with Tween-80) was 158 % of control.
With CCc1ccc2c(c1)C(=O)c1c(c(-c3ccccc3)c3ccccc3c1-c1ccccc1)C2=O the T/C (dose: 1.5 mg/kg/injection, schedule: Q01DX005 (ip), vehicle: saline with Tween-80) was 98 % of control, the T/C (dose: 3.0 mg/kg/injection, schedule: Q01DX005 (ip), vehicle: saline with Tween-80) was 95 % of control and the T/C (dose: 6.0 mg/kg/injection, schedule: Q01DX005 (ip), vehicle: saline with Tween-80) was 90 % of control. For the same compound, the T/C [4] was 92 % of control and the T/C [5] was 92 % of control.
For CC(=O)SCC(C)CCl (stereo unspecified), the T/C (dose: 100.0 mg/kg/injection, schedule: Q04DX003 (ip), vehicle: saline with Tween-80) was 100 % of control and the T/C (dose: 200.0 mg/kg/injection, schedule: Q04DX003 (ip), vehicle: saline with Tween-80) was 109 % of control.
In the case of c1ccc2c(c1)nc1cc(NC3CCCCC3)c(=NC3CCCCC3)cc-1n2C1CCCCC1, the T/C [1] is reported as 87 % of control, the T/C [2] is reported as 91 % of control and the T/C [3] is reported as 89 % of control.
In the case of CCCCCCCCCCCCCCCC(=O)O, the T/C [6] is reported as 107 % of control, the T/C [7] is reported as 102 % of control and the T/C (dose: 200.0 mg/kg/injection, schedule: Q01DX009 (ip), vehicle: saline with Tween-80) is reported as 102 % of control.
COC(=O)C1(CC(=O)c2cccc3ccccc23)NC(=S)NC(=O)C1C#N (stereo unspecified) was tested, and the T/C [1] was 101 % of control, the T/C [2] was 101 % of control and the T/C [3] was 102 % of control.
With COc1ccccc1C(C)c1cc2c(cc1OC)OCO2 (stereo unspecified) the T/C (dose: 50.0 mg/kg/injection, schedule: Q01DX005 (ip), vehicle: saline with Tween-80) was 100 % of control, the T/C [4] was 101 % of control and the T/C [5] was 93 % of control.
CCN(c1ccccc1)c1cc(=O)nc2ccccn12 was tested, and the T/C [8] was 107 % of control, the T/C [9] was 105 % of control and the T/C [10] was 104 % of control.
For c1ccc(N=P(c2ccccc2)(c2ccccc2)c2ccccc2)cc1, the T/C (dose: 25.0 mg/kg/injection, schedule: Q01DX009 (ip), vehicle: saline with Tween-80) was 96 % of control, the T/C [6] was 108 % of control and the T/C [7] was 108 % of control.
In the case of C=C(CN(C)C)C(=O)c1ccc(OC)cc1, the T/C (dose: 0.93 mg/kg/injection, schedule: Q01DX005 (ip), vehicle: saline) is reported as 100 % of control, the T/C (dose: 1.87 mg/kg/injection, schedule: Q01DX005 (ip), vehicle: saline) is reported as 113 % of control and the T/C (dose: 3.75 mg/kg/injection, schedule: Q01DX005 (ip), vehicle: saline) is reported as 99 % of control.
In the case of O=C1CN(C2OC(CO)C(O)C2O)C(=O)NC1=O (stereo unspecified), the T/C [11] is reported as 112 % of control, the T/C (dose: 50.0 mg/kg/injection, schedule: Q01DX005 (ip), vehicle: saline) is reported as 113 % of control and the T/C (dose: 50.0 mg/kg/injection, schedule: Q01DX005 (ip), vehicle: suspension in saline) is reported as 100 % of control. The T/C (dose: 100.0 mg/kg/injection, schedule: Q01DX005 (ip), vehicle: saline) was 99 % of control and 116 % of control, the T/C (dose: 100.0 mg/kg/injection, schedule: Q01DX005 (ip), vehicle: suspension in saline) was 107 % of control and the T/C (dose: 200.0 mg/kg/injection, schedule: Q01DX005 (ip), vehicle: saline) was 116 % of control. For the same compound, the T/C (dose: 200.0 mg/kg/injection, schedule: Q01DX005 (ip), vehicle: suspension in saline) was 109 % of control and the T/C (dose: 400.0 mg/kg/injection, schedule: Q01DX005 (ip), vehicle: suspension in saline) was 116 % of control.
CCC(C)Sc1nc2ccc(NC(=O)/C=C/C(=O)O)cc2s1 (stereo unspecified) was tested, and the T/C (dose: 100.0 mg/kg/injection, schedule: Q04DX003 (ip), vehicle: Klucel (hydroxypropylcellulose) (HPC)) was 95 % of control and the T/C (dose: 200.0 mg/kg/injection, schedule: Q04DX003 (ip), vehicle: Klucel (hydroxypropylcellulose) (HPC)) was 100 % of control.
Nc1nnc2nc(CC(=O)c3ccccc3[N+](=O)[O-])c(CC(=O)c3ccccc3[N+](=O)[O-])nn12 was tested, and the T/C [1] was 100 % of control, the T/C [2] was 101 % of control and the T/C [3] was 100 % of control.
With C[n+]1cccc(NC(=O)c2ccc(NC(=O)c3ccc(C(=O)Nc4ccc(NC(=N)N)cc4)cc3)cc2)c1 the T/C (dose: 4.7 mg/kg/injection, schedule: Q01DX009 (ip), vehicle: saline) was 110 % of control, the T/C (dose: 9.4 mg/kg/injection, schedule: Q01DX009 (ip), vehicle: saline) was 90 % of control and the T/C (dose: 12.5 mg/kg/injection, schedule: Q04DX003 (ip), vehicle: saline) was 195 % of control.
For Nc1cc(=O)nc2cn[nH]n12, the T/C (dose: 50.0 mg/kg/injection, schedule: Q01DX009 (ip), vehicle: saline) was 92 % of control, the T/C (dose: 100.0 mg/kg/injection, schedule: Q01DX009 (ip), vehicle: saline) was 101 % of control and the T/C (dose: 200.0 mg/kg/injection, schedule: Q01DX009 (ip), vehicle: saline) was 90 % of control.
O=S1(=O)OCCO1 was tested, and the T/C (dose: 12.5 mg/kg/injection, schedule: Q01DX005 (ip), vehicle: saline) was 106 % of control and the T/C [11] was 108 % of control.
In the case of Cc1cc(C2(O)CCCc3ccccc32)[n+]([O-])cc1C (stereo unspecified), the T/C (dose: 50.0 mg/kg/injection, schedule: Q01DX005 (ip), vehicle: saline + Tween-80 + alcohol) is reported as 106 % of control, the T/C (dose: 100.0 mg/kg/injection, schedule: Q01DX005 (ip), vehicle: saline + Tween-80 + alcohol) is reported as 104 % of control and the T/C (dose: 200.0 mg/kg/injection, schedule: Q01DX005 (ip), vehicle: saline + Tween-80 + alcohol) is reported as 107 % of control.
O=C1Cc2ccccc2C2CC12 (stereo unspecified) was tested, and the T/C (dose: 100.0 mg/kg/injection, schedule: Q01DX001 (ip), vehicle: Klucel (hydroxypropylcellulose) (HPC)) was 98 % of control, the T/C (dose: 200.0 mg/kg/injection, schedule: Q01DX001 (ip), vehicle: Klucel (hydroxypropylcellulose) (HPC)) was 113 % of control and the T/C (dose: 400.0 mg/kg/injection, schedule: Q01DX001 (ip), vehicle: Klucel (hydroxypropylcellulose) (HPC)) was 111 % of control.
For NC(=O)c1ccccc1OC(=O)Nc1ccc(F)cc1, the T/C (dose: 15.0 mg/kg/injection, schedule: Q01DX005 (ip), vehicle: saline with Tween-80) was 101 % of control, the T/C (dose: 30.0 mg/kg/injection, schedule: Q01DX005 (ip), vehicle: saline with Tween-80) was 97 % of control and the T/C [1] was 99 % of control and 103 % of control. The T/C [2] was 99 % of control.
In the case of CN(C)C(=O)Oc1c(Cc2ccccc2)c(=O)n2c([nH]c3ccccc32)c1C#N, the T/C [1] is reported as 89 % of control and the T/C [2] is reported as 92 % of control.
For COC(=O)c1cc(-c2ccc([N+](=O)[O-])cc2)c2c(=O)n(-c3ccccc3)[nH]c2n1, the T/C [1] was 94 % of control, the T/C [2] was 87 % of control and the T/C [3] was 88 % of control.
COP(=O)(N/N=C/C(=O)O)OC was tested, and the T/C (dose: 12.5 mg/kg/injection, schedule: Q01DX009 (ip), vehicle: water) was 104 % of control, the T/C (dose: 25.0 mg/kg/injection, schedule: Q01DX009 (ip), vehicle: water) was 103 % of control and the T/C (dose: 50.0 mg/kg/injection, schedule: Q01DX009 (ip), vehicle: water) was 101 % of control. For the same compound, the T/C (dose: 100.0 mg/kg/injection, schedule: Q01DX009 (ip), vehicle: water) was 96 % of control and the T/C (dose: 200.0 mg/kg/injection, schedule: Q01DX009 (ip), vehicle: water) was 95 % of control.
In the case of COc1nc(NC2OC(CO)C(O)C(O)C2O)c(Cl)c(=O)[nH]1 (stereo unspecified), the T/C [8] is reported as 97 % of control, the T/C [9] is reported as 94 % of control and the T/C [10] is reported as 102 % of control.
O=CNc1cccc(NC=O)c1 was tested, and the T/C (dose: 25.0 mg/kg/injection, schedule: Q01DX009 (ip), vehicle: distilled water + Tween-80) was 111 % of control, the T/C (dose: 50.0 mg/kg/injection, schedule: Q01DX009 (ip), vehicle: distilled water + Tween-80) was 100 % of control and the T/C (dose: 100.0 mg/kg/injection, schedule: Q01DX009 (ip), vehicle: distilled water + Tween-80) was 100 % of control. The T/C (dose: 200.0 mg/kg/injection, schedule: Q01DX009 (ip), vehicle: distilled water + Tween-80) was 100 % of control.
With COC(=O)c1ncn(C2CCCCC2)c1N the T/C (dose: 6.25 mg/kg/injection, schedule: Q01DX005 (ip), vehicle: saline with Tween-80) was 99 % of control and the T/C (dose: 12.5 mg/kg/injection, schedule: Q01DX005 (ip), vehicle: saline with Tween-80) was 101 % of control.
CC1=CC(O)C(O)C2(C)C1CC1OC(=O)C(OC3OC(CO)C(O)C(O)C3O)C3C(C)C(O)C4(O)OCC13C42 (stereo unspecified) was tested, and the T/C (dose: 2.13 mg/kg/injection, schedule: Q01DX005 (ip), vehicle: water) was 101 % of control.
